Assay results: patent US9593305B2, “Differentiation of pluripotent stem cells” (Janssen Biotech, Inc., priority 2008, dated 2017)

Test system: H1 human embryonic stem cells
Experiment: Step-wise differentiation, RT-PCR of differentiation markers (Example 17, Table 15)
Type: cell-based
Protocol: Stock cultures of human embryonic stem cells (H1 human embryonic stem cell line) were maintained in an undifferentiated, pluripotent state on reduced growth factor […]™ (BD Biosciences; Cat #356231)-coated dishes in MEF conditioned medium supplemented with 8 ng/ml bFGF (PeproTech Inc.; Cat #100-18B) with passage on average every four days. Passage was performed by exposing cell cultures to a solution of 1 mg/ml dispase (Invitrogen; Cat #17105-041) for 5 to 7 minutes at 37° C. followed by rinsing the monolayer with MEF conditioned culture medium and gentle scraping to recover cell clusters. Clusters were centrifuged at low speed to collect a cell pellet and remove residual dispase. Cell clusters were split at a 1:3 or 1:4 ratio for routine maintenance culture or a 1:1 ratio for immediate assay. All human ES cell lines were maintained at passage numbers less than 50 and routinely evaluated for normal karyotype and absence of mycoplasma.
Cell clusters were evenly resuspended in MEF conditioned medium supplemented with 8 ng/ml bFGF and plated onto reduced growth factor […]™-coated 24-well, black wall culture plates (Arctic White; Cat #AWLS-303012) in volumes of 0.5 ml/well. Daily feeding was conducted by aspirating spent culture medium from each well and replacing with an equal volume of fresh medium. Plates were maintained at 37° C., 5% CO2 throughout assay.
The assay was initiated by aspirating the culture medium from each well and adding back an aliquot (0.5 ml) of test medium. Test conditions for the first step of differentiation were conducted over a three-day period, feeding daily by aspirating and replacing the medium from each well with fresh test medium. On the first day of assay, 100 ng/ml activin A (PeproTech; Cat #120-14) or 100 ng/ml GDF-8 (R&D Systems, Cat #788-G8) was added to respective assay wells where each growth factor was diluted into RPMI-1640 medium (Invitrogen; Cat #: 22400) with 2% Albumin Bovine Fraction V, Fatty Acid Free (FAF BSA) (MP Biomedicals, Inc; Cat #152401). In some samples, 20 ng/ml Wnt3a (R&D Systems; Cat #1324-WN/CF) was also included. On the second day of assay, 100 ng/mlactivin A or 100 ng/ml GDF-8 was diluted into RPMI-1640 medium supplemented with 2% FAF BSA, omitting Wnt3a from all samples. In some test samples using GDF-8, Wnt3a was replaced with a given concentration of small molecule compound, added only on the first day of definitive endoderm differentiation. […] At the conclusion of the first step of differentiation, cells from some wells were harvested for flow cytometry analysis to evaluate levels of CXCR4, a marker of definitive endoderm formation. Additional wells were harvested for RT-PCR analysis to measure other markers of differentiation.
At the conclusion of the first step of definitive endoderm differentiation, replicate sets of parallel wells from each treatment group were subjected to further step-wise differentiation. It is important to note that after the first differentiation step, all wells undergoing subsequent culture and differentiation received the same treatment. The protocol for this continuing differentiation is described below.
Step 2 of the differentiation protocol was carried out over two days. Cells were fed daily by aspirating the medium from each well and replacing with a fresh aliquot (0.5 ml) of DMEM:F12 medium (Invitrogen; Cat #11330-032) containing 2% FAF BSA, 50 ng/ml FGF7 (PeproTech; Cat #100-19), and 250 nM cyclopamine-KAAD (Calbiochem; Cat #239804).
Step 3 of the differentiation protocol was carried out over four days. […]

[1] = Step 5, cells harvested at end of step, treatment given during step one

## GDF-8: growth factor GDF-8, also known as myostatin, member of the TGF-β family
Step 1
  RT-PCR CT Values AFP: 40.0
  RT-PCR CT Values CD9: 25.5
  RT-PCR CT Values CD99: 25.9
  RT-PCR CT Values CDH: 22.3
  RT-PCR CT Values CDH1: 25.2
  RT-PCR CT Values CDX2: 40.0
  RT-PCR CT Values CER1: 20.1
  RT-PCR CT Values CXCR4: 24.6
  RT-PCR CT Values FGF4: 34.9
  RT-PCR CT Values FGF17: 22.1
  RT-PCR CT Values FOXA2: 25.9
  RT-PCR CT Values GAPDH: 21.6
  RT-PCR CT Values GATA4: 27.5
  RT-PCR CT Values GATA6: 24.8
  RT-PCR CT Values GSC: 24.2
  RT-PCR CT Values HLXB9: 25.3
  RT-PCR CT Values KIT: 25.4
  RT-PCR CT Values MIXL1: 30.6
  RT-PCR CT Values NANOG: 25.0
  RT-PCR CT Values OTX2: 24.3
  RT-PCR CT Values POU5F1: 29.5
  RT-PCR CT Values SOX7: 29.8
  RT-PCR CT Values SOX17: 25.2
  RT-PCR CT Values T: 32.9
Step 3
  RT-PCR CT Values ALB: 28.7
  RT-PCR CT Values AMY2A: 30.4
  RT-PCR CT Values ARX: 35.3
  RT-PCR CT Values CDX2: 23.8
  RT-PCR CT Values GAPDH: 18.0
  RT-PCR CT Values GCG: 40.0
  RT-PCR CT Values HNF4A: 23.6
  RT-PCR CT Values INS: 40.0
  RT-PCR CT Values ISL1: 28.5
  RT-PCR CT Values MAFA: 33.6
  RT-PCR CT Values MAFB: 27.2
  RT-PCR CT Values NEUROD1: 30.3
  RT-PCR CT Values NEUROG3: 28.7
  RT-PCR CT Values NKX2-2: 30.3
  RT-PCR CT Values NKX2-5: 34.4
  RT-PCR CT Values NKX6-1: 35.0
  RT-PCR CT Values PAX4: 32.4
  RT-PCR CT Values PAX6: 24.8
  RT-PCR CT Values PDX1: 25.5
  RT-PCR CT Values PECAM: 30.0
  RT-PCR CT Values POU3F4: 30.8
  RT-PCR CT Values PTF1A: 34.2
  RT-PCR CT Values SST: 29.5
  RT-PCR CT Values ZIC1: 26.1
Step 4
  RT-PCR CT Values ALB: 25.5
  RT-PCR CT Values AMY2A: 29.1
  RT-PCR CT Values ARX: 29.8
  RT-PCR CT Values CDX2: 24.6
  RT-PCR CT Values GAPDH: 18.0
  RT-PCR CT Values GCG: 31.3
  RT-PCR CT Values HNF4A: 23.8
  RT-PCR CT Values INS: 30.9
  RT-PCR CT Values ISL1: 27.6
  RT-PCR CT Values MAFA: 32.8
  RT-PCR CT Values MAFB: 24.1
  RT-PCR CT Values NEUROD1: 29.2
  RT-PCR CT Values NEUROG3: 28.7
  RT-PCR CT Values NKX2-2: 29.0
  RT-PCR CT Values NKX2-5: 32.3
  RT-PCR CT Values NKX6-1: 31.2
  RT-PCR CT Values PAX4: 31.1
  RT-PCR CT Values PAX6: 27.9
  RT-PCR CT Values PDX1: 26.5
  RT-PCR CT Values PECAM: 29.4
  RT-PCR CT Values POU3F4: 29.4
  RT-PCR CT Values PTF1A: 40.0
  RT-PCR CT Values SST: 26.0
  RT-PCR CT Values ZIC1: 22.8
Step 5
  RT-PCR CT Values ALB: 20.5
  RT-PCR CT Values AMY2A: 28.2
  RT-PCR CT Values ARX: 25.2
  RT-PCR CT Values CDX2: 24.4
  RT-PCR CT Values GAPDH: 17.4
  RT-PCR CT Values GCG: 18.1
  RT-PCR CT Values HNF4A: 22.9
  RT-PCR CT Values INS: 17.7
  RT-PCR CT Values ISL1: 24.3
  RT-PCR CT Values MAFA: 31.8
  RT-PCR CT Values MAFB: 23.3
  RT-PCR CT Values NEUROD1: 24.2
  RT-PCR CT Values NEUROG3: 30.1
[1]
  RT-PCR CT Values NKX2-2: 25.9 CT
  RT-PCR CT Values NKX2-5: 31.4 CT
  RT-PCR CT Values NKX6-1: 26.6 CT
  RT-PCR CT Values PAX4: 29.4 CT
  RT-PCR CT Values PAX6: 26.6 CT
  RT-PCR CT Values PDX1: 25.6 CT
  RT-PCR CT Values PECAM: 29.7 CT
  RT-PCR CT Values POU3F4: 27.8 CT
  RT-PCR CT Values PTF1A: 29.5 CT
  RT-PCR CT Values SST: 21.1 CT
  RT-PCR CT Values ZIC1: 22.5 CT

## Activin A: recombinant human activin A (PeproTech), TGF-beta family member
Step 1
  RT-PCR CT Values AFP: 32.8
  RT-PCR CT Values CD9: 25.2
  RT-PCR CT Values CD99: 24.0
  RT-PCR CT Values CDH: 21.8
  RT-PCR CT Values CDH1: 26.1
  RT-PCR CT Values CDX2: 36.0
  RT-PCR CT Values CER1: 18.3
  RT-PCR CT Values CXCR4: 20.4
  RT-PCR CT Values FGF4: 34.0
  RT-PCR CT Values FGF17: 20.7
  RT-PCR CT Values FOXA2: 25.1
  RT-PCR CT Values GAPDH: 19.4
  RT-PCR CT Values GATA4: 25.0
  RT-PCR CT Values GATA6: 22.9
  RT-PCR CT Values GSC: 22.4
  RT-PCR CT Values HLXB9: 24.8
  RT-PCR CT Values KIT: 22.7
  RT-PCR CT Values MIXL1: 28.9
  RT-PCR CT Values NANOG: 24.1
  RT-PCR CT Values OTX2: 22.5
  RT-PCR CT Values POU5F1: 32.2
  RT-PCR CT Values SOX7: 32.3
  RT-PCR CT Values SOX17: 21.6
  RT-PCR CT Values T: 36.1
Step 3
  RT-PCR CT Values ALB: 26.9
  RT-PCR CT Values AMY2A: 30.6
  RT-PCR CT Values ARX: 32.0
  RT-PCR CT Values CDX2: 22.9
  RT-PCR CT Values GAPDH: 18.5
  RT-PCR CT Values GCG: 34.1
  RT-PCR CT Values HNF4A: 22.4
  RT-PCR CT Values INS: 34.8
  RT-PCR CT Values ISL1: 29.3
  RT-PCR CT Values MAFA: 36.4
  RT-PCR CT Values MAFB: 27.4
  RT-PCR CT Values NEUROD1: 30.1
  RT-PCR CT Values NEUROG3: 28.0
  RT-PCR CT Values NKX2-2: 29.3
  RT-PCR CT Values NKX2-5: 34.6
  RT-PCR CT Values NKX6-1: 32.2
  RT-PCR CT Values PAX4: 31.4
  RT-PCR CT Values PAX6: 40.0
  RT-PCR CT Values PDX1: 23.3
  RT-PCR CT Values PECAM: 31.0
  RT-PCR CT Values POU3F4: 30.5
  RT-PCR CT Values PTF1A: 34.6
  RT-PCR CT Values SST: 33.2
  RT-PCR CT Values ZIC1: 34.8
Step 4
  RT-PCR CT Values ALB: 22.4
  RT-PCR CT Values AMY2A: 28.6
  RT-PCR CT Values ARX: 23.9
  RT-PCR CT Values CDX2: 23.7
  RT-PCR CT Values GAPDH: 19.0
  RT-PCR CT Values GCG: 22.8
  RT-PCR CT Values HNF4A: 22.1
  RT-PCR CT Values INS: 23.6
  RT-PCR CT Values ISL1: 24.1
  RT-PCR CT Values MAFA: 30.6
  RT-PCR CT Values MAFB: 23.5
  RT-PCR CT Values NEUROD1: 23.7
  RT-PCR CT Values NEUROG3: 23.3
  RT-PCR CT Values NKX2-2: 24.0
  RT-PCR CT Values NKX2-5: 31.9
  RT-PCR CT Values NKX6-1: 27.4
  RT-PCR CT Values PAX4: 25.7
  RT-PCR CT Values PAX6: 27.1
  RT-PCR CT Values PDX1: 23.7
  RT-PCR CT Values PECAM: 29.8
  RT-PCR CT Values POU3F4: 26.5
  RT-PCR CT Values PTF1A: 29.6
  RT-PCR CT Values SST: 24.3
  RT-PCR CT Values ZIC1: 32.5
Step 5
  RT-PCR CT Values ALB: 20.2
  RT-PCR CT Values AMY2A: 27.6
  RT-PCR CT Values ARX: 22.0
  RT-PCR CT Values CDX2: 23.4
  RT-PCR CT Values GAPDH: 18.3
  RT-PCR CT Values GCG: 14.1
  RT-PCR CT Values HNF4A: 21.3
  RT-PCR CT Values INS: 14.9
  RT-PCR CT Values ISL1: 22.4
  RT-PCR CT Values MAFA: 31.8
  RT-PCR CT Values MAFB: 22.2
  RT-PCR CT Values NEUROD1: 22.8
  RT-PCR CT Values NEUROG3: 28.1
[1]
  RT-PCR CT Values NKX2-2: 23.7 CT
  RT-PCR CT Values NKX2-5: 34.1 CT
  RT-PCR CT Values NKX6-1: 25.5 CT
  RT-PCR CT Values PAX4: 27.3 CT
  RT-PCR CT Values PAX6: 24.0 CT
  RT-PCR CT Values PDX1: 23.2 CT
  RT-PCR CT Values PECAM: 30.1 CT
  RT-PCR CT Values POU3F4: 28.8 CT
  RT-PCR CT Values PTF1A: 27.3 CT
  RT-PCR CT Values SST: 19.6 CT
  RT-PCR CT Values ZIC1: 34.4 CT
